Measured values taken from article PMC9920413, “New Bicyclic Pyridine-Based Hybrids Linked to the 1,2,3-Triazole Unit: Synthesis via Click Reaction and Evaluation of Neurotropic Activity and Molecular Docking” (Molecules, 2023).
Where “and” joins values, the source holds several entries; their conditions need not be identical. Equal entries are not always repeated.

How the values were obtained:
[1] = tested on: thiosemicarbazide (TSC)-induced convulsions; assay: Thiosemicarbazide (TSC) seizures; type: in vivo, mice; conditions: mice; for Latency of Convulsions, Induced by TSC, M ± M: compound 100 mg/kg i.p. 45 min before TSC 18 mg/kg s.c.; for Latency of Convulsions, Induced by TSC, I (index of latent period of TSC seizures): compound 100 mg/kg i.p., relative to control = 1.0
Protocol: (§1) The study of the anticonvulsant activity of hybrids 7a–u was assessed by evaluating the antagonism to pentylenetetrazole (PTZ), thiosemicarbazide convulsive seizures, and maximal electroshock-induced seizures (MES). The PTZ-induced test is considered an experimental model for the clonic component of epilepsy seizures and the prognostic anxiolytic activity of the compounds. PTZ is a common convulsive agent used in animal models to investigate the mechanisms of seizures. The model of thiosemicarbazide (TSC) seizures (affecting the exchange of GABA) causes clonic seizures similar to pentylenetetrazole ones. The MES test is used as an animal model for the generalization of tonic seizures in epilepsy. The neurotoxicity and side effects of the compounds (movement coordination disorder, myorelaxation, and ataxia) were also studied on mice with the “rotating rod”[29] test.
Thiosemicarbazide, an antimetabolite of GABA inhibitor (glutamic acid decarboxylase) in the brain, is administered subcutaneously to mice at a dose of 18 mg/kg as a 0.5% solution, which causes clonic convulsions in animals. Anti-thiosemicarbazide activity was evaluated based on the latency time of the onset of seizures. Compounds were administered intraperitoneally at doses of 100 mg/kg in suspension with carboxymethylcellulose and Tween-80 45 min before administration of thiosemicarbazide.

mice [2] = assay: Rotating rod test (neurotoxicity, myorelaxation); type: in vivo; conditions: i.p., myorelaxation in 50% of animals
Protocol: as §1
(§2) Adverse neurotoxic (muscle relaxant) effects of compounds were studied at doses of 50 to 500 mg/kg when administered intraperitoneally, as well as reference drugs in effect at anticonvulsant doses. Myorelaxation was investigated with the test of a “rotating rod” in mice. To this end, mice were planted on a metal rod with a corrugated rubber coating, which rotated at a speed of 5 revolutions per minute. The number of animals that cnot stay on it for 2 min was determined. To determine the ED50, neurotoxic TD50, and LD50, the statistical method of penetration by Litchfield and Wilcoxon was used.

rats [3] = assay: Open field test; type: in vivo; conditions: 50 mg/kg i.p.; for Cells Examination, amount (absolute data during 5 min): control 2.4 ± 0.67; for Vertical Displacement, amount (absolute data during 5 min): control 7.0 ± 2.14; for Horizontal Displacement, amount (absolute data during 5 min): control 21.6 ± 2.25
Protocol: Open field test. The research-motor behavior of rats was studied on a modified “open field” model. For this purpose, an installation was used, the bottom of which is divided into squares with holes (cells). Experiments were performed in the daytime with natural light. Within 5 min of the experiment, the indicators of sedative and activating behavior were determined, namely the number of horizontal movements, standing on the hind legs (vertical movements), and sniffing of the cells. The number of animals on this model was eight for each compound, control, and reference drug.

mice [4] = assay: in vivo; conditions: dead animals after 24 h
Protocol: as §2

mouse = assay: Elevated plus maze (EPM) test; type: in vivo; conditions: 50 mg/kg i.p., 5 min; for Number of Entries into the Closed Arms: control 9.4 ± 1.6; for Time Spent in the Center: control 28.2 ± 3.12; for Time Spent in Closed Arms: control 269.2 ± 10.4
From the text: Elevated plus maze—EPM test. Anti-anxiety and sedative effects were studied on mouse a model of the “elevated plus maze”. The labyrinth is a cruciform machine raised above the floor, with a pair of open and closed sleeves opposed to each other. Normal animals prefer to spend most of their time in the closed (dark) sleeves of the labyrinth. The anxiolytic effect of the compounds was estimated by the increase in the number of entries into open (light) sleeves and the time spent in them without increasing the total motor activity. This records the time spent in the closed sleeve and the number of attempts to enter the installation center. In the above model, the test compounds and the reference drug were injected intraperitoneally before the experiments. The control animals were administered as an emulsifier. Results were processed statistically (p < 0.05).

[5] = tested on: pentylenetetrazole (PTZ)-induced convulsions; assay: Antagonism to pentylenetetrazole (PTZ) convulsions; type: in vivo; conditions: for ED50 (by PTZ antagonism): mice, i.p. 45 min before PTZ 90 mg/kg s.c., confidence limits in brackets, p = 0.05; for TI: therapeutic index TI = LD50/ED50
Protocol: as §1
The anticonvulsant effect of the newly synthesized compounds was investigated by tests comprising pentylenetetrazole, thiosemicarbazide convulsions, and maximal electroshock (MES). Outbred mice (weight 18–22 g) were used for the study. […] Each animal is placed into an individual plastic cage for observation lasting 1 h. Seizures and clonic convulsions were recorded. […] The control animals were administered as an emulsifier. Every dose of each test compound was studied in six animals.
as §2

mice [6] = assay: Forced swimming test; conditions: 50 mg/kg, 6 min; for Total Time of Immobilization: control 42.0 ± 7.24; for Total Time of Active Swimming: control 318.0 ± 8.36;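 on all read-outs here: mice made to swim in a water-filled glass vessel under natural light, with durations of active swimming and immobility recorded across the 6 min session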
Protocol: Forced swimming test. To assess “despair and depression”, the “compelling swimming” model was used. Experimental animals were forced to swim in a glass container (height 22 cm, diameter 14 cm), filled 1/3 with water. […] The latent period of immobilization, the total duration of active swimming and immobilization are fixed at 6 min (the experiments were conducted under natural light).

rats [7] = assay: Electroshock retrograde amnesia, conditioned response of passive avoidance (CRPA); type: in vivo; conditions: 50 mg/kg, study for 5 min; for The Time Spent in the Light Chamber during the Training of the CRPA, First Day: control 280.0 ± 7.5; for The Time Spent in the Light Chamber When Playing CRPA + MESH after 24 h, Second Day: control 281.0 ± 6.1
Protocol: Test for learning and memory. The antiamnesic properties of the compounds were studied using an electroshock amnesia model modified by J. Bures, O. Buresova. In rats, a conditioned passive avoidance reaction (CRPA) to a dark-light setting was developed, while the training of the animals with CRPA was recorded. The residence times in the light and dark compartments were recorded for 5 min (300 s). Then, in the dark compartment, the animal received a single current shock (0.4 mA) through the electrode floor (training). To obtain amnesia, a maximum electroconvulsive seizure is induced in animals (conducting a maximum electric current of 50 Hz for 0.2 s through corneal electrodes). Conducting an electric shock immediately after training causes the erasure of the memory trace. The test for reproduction is carried out 24 h after training—after the development of CRPA. During this period, the control animals forget the training and prefer to be in the dark part of the chamber. An increase in the time spent by rats in the light compartment compared to the control on the second day indicates the presence of antiamnestic properties of the compounds.

Molecule	Latency of Convulsions, Induced by TSC, M ± M [1]	Latency of Convulsions, Induced by TSC, I (index of latent period of TSC seizures) [1]	TD50 (mice [2])	Cells Examination, amount (absolute data during 5 min) (rats [3])	Vertical Displacement, amount (absolute data during 5 min) (rats [3])	Horizontal Displacement, amount (absolute data during 5 min) (rats [3])	LD50 (mice [4])	Time Spent in the Open Arms (mouse; control 2.6 ± 1.6)	Number of Entries into the Closed Arms (mouse)	Time Spent in the Center (mouse)	Time Spent in Closed Arms (mouse)	ED50 (by PTZ antagonism) [5]	Total Time of Immobilization (mice [6])	Total Time of Active Swimming (mice [6])	The Time Spent in the Light Chamber during the Training of the CRPA, First Day (rats [7])	The Time Spent in the Light Chamber When Playing CRPA + MESH after 24 h, Second Day (rats [7])	melting point	TI [5]	Time Spent in the Open Arms (mouse; control 2.6 ± 1.6, 50 mg/kg)
6-{4-[(4-{[(4-Cyano-1-methyl-5,6,7,8-tetrahydroisoquinolin-3-yl)oxy]methyl}-1H-1,2,3-triazol-1-yl)acetyl]piperazin-1-yl}-1,3,3-trimethyl-3,4-dihydro-1H-pyrano [3,4-c]pyridine-5-carbonitrile [7d]	41.2 ± 1.61 min	4.12	>500 mg/kg	6.2 ±0.38	14.4 ± 3.98	38.6 ± 5.18	800 (672 ÷ 952) mg/kg	21.0 ± 3.2 s	1.36 ± 0.8	15.0 ± 3.62 s	264 ± 8.12 s	16 (13.1 ÷ 19.5) mg/kg	77.4 ± 7.1 s	300.0 ± 29.2 s	284.0 ± 6.8 s	299.0 ± 7.2 s	–	–	–
CCCc1nc(N2CCN(C(=O)Cn3cc(COc4nc(-c5ccco5)c5c(c4C#N)CCCC5)nn3)CC2)c(C#N)c2c1COC(C)(C)C2 [7l, 6-(4-{[4-({[4-Cyano-1-(2-furyl)-5,6,7,8-tetrahydroisoquinolin-3-yl]oxy}methyl)-1H-1,2,3-triazol-1-yl]acetyl}piperazin-1-yl)-3,3-dimethyl-8-propyl-3,4-dihydro-1H-pyrano [3,4-c]pyridine-5-carbonitrile]	–	–	–	–	–	–	–	–	–	–	–	–	–	–	–	–	144 to 146 °C	–	–
6-{4-[(4-{[(5-Cyano-3,3,8-trimethyl-3,4-dihydro-1H-pyrano [3,4-c]pyridin-6-yl)oxy]methyl}-1H-1,2,3-triazol-1-yl)acetyl]piperazin-1-yl}-1-ethyl-3,3-dimethyl-3,4-dihydro-1H-pyrano [3,4-c]pyridine-5-carbonitrile [7n]	41.2 ± 1.61 min	4.12	>500 mg/kg	3.0 ± 0.89	11.6 ± 2.5	52.2 ± 12.2	820 (689 ÷ 976) mg/kg	12.0 ± 1.4 s	1.4 ± 1.2	82.0 ± 15.2 s	204.0 ± 14.2 s	26 (18.6 ÷ 36.4) mg/kg	42.0 ± 12.04 s	324.0 ± 22.4 s	283.0 ± 7.1 s	297.0 ± 6.8 s	–	31.5	–
6-{4-[(4-{[(4-Cyano-1-isopropyl-5,6,7,8-tetrahydroisoquinolin-3-yl)oxy]methyl}-1H-1,2,3-triazol-1-yl)acetyl]piperazin-1-yl}-3,3-dimethyl-1-propyl-3,4-dihydro-1H-pyrano [3,4-c]pyridine-5-carbonitrile [7i]	41.0 ± 1.75 min	4.1	>500 mg/kg	3.4 ± 1.89	15.0 ± 4.28	50.2 ± 5.5	695 (579 ÷ 834) mg/kg	42.0 ± 8.43 s	2.2 ± 0.61	16.0 ± 5.2 s	242.0 ± 16.46 s	–	62.0 ± 5.04 s	300.0 ± 19.35 s	286.0 ± 6.3 s	299.0 ± 6.3 s	–	20.4	–
CCCc1nc(OCc2cn(CC(=O)N3CCN(c4nc(C)c5c(c4C#N)CC(C)(C)OC5)CC3)nn2)c(C#N)c2c1COC(C)(C)C2 [7s, 6-{4-[(4-{[(5-Cyano-3,3-dimethyl-8-propyl-3,4-dihydro-1H-pyrano [3,4-c]pyridin-6-yl)oxy]methyl}-1H-1,2,3-triazol-1-yl)acetyl]piperazin-1-yl}-3,3,8-trimethyl-3,4-dihydro-1H-pyrano [3,4-c]pyridine-5-carbonitrile]	–	–	–	–	–	–	–	–	–	–	–	–	–	–	–	–	192 to 194 °C	–	–
6-{4-[(4-{[(4-Cyano-1-isopropyl-5,6,7,8-tetrahydroisoquinolin-3-yl)oxy]methyl}-1H-1,2,3-triazol-1-yl)acetyl]piperazin-1-yl}-1,3,3-trimethyl-3,4-dihydro-1H-pyrano [3,4-c]pyridine-5-carbonitrile [7g]	28.4 ± 0.67 min	2.84	>500 mg/kg	10.0 ± 3.56	9.0 ± 2.34	49.0 ± 7.16	680 (571 ÷ 809) mg/kg	–	6.0 ± 1.67	53.4 ± 3.53 s	237.8 ± 12.5 s	18 (10.6 ÷ 30.6) mg/kg	3.0 ± 0.6 s	357.0 ± 13.5 s	283.0 ± 5.2 s	297.0 ± 7.2 s	–	37.8	6.6 s and 6.6 ± 2.3 s
